Source: patent US6737383B1, “Herbicidal oxadiazolidines” (priority 1999, dated 2004)

Legend:
velvetleaf = assay: Test B pre/postemergence velvetleaf; assay type: in vivo, Abutilon theophrasti; details: for Velvetleaf plant response rating: scale of 0 to 10 where 0 is no effect and 10 is complete control
Outline: (§1)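 Response is a visual 0-to-10 score relative to untreated plants, where 0 means no effect and 10 means complete control, taken twelve to sixteen days after application. Treatments went onto soil at planting and onto foliage of 1- to 4-leaf plants, using a surfactant-containing non-phytotoxic solvent.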

bedstraw = assay: Test B pre/postemergence bedstraw; assay type: in vivo, Galium aparine; details: Postemergence
Outline: as §1

crabgrass = assay: Test B pre/postemergence crabgrass; assay type: in vivo, Digitaria sanguinalis; details: for Crabgrass plant response rating: scale of 0 to 10 where 0 is no effect and 10 is complete control
Outline: as §1

pigweed = assay: Test B pre/postemergence pigweed; assay type: in vivo, Amaranthus retroflexus; details: for Redroot pigweed plant response rating: scale of 0 to 10 where 0 is no effect and 10 is complete control
Outline: as §1

purple nutsedge = assay: Test B pre/postemergence purple nutsedge; assay type: in vivo, Cyperus rotundus; details: for Nutsedge plant response rating: scale of 0 to 10 where 0 is no effect and 10 is complete control
Outline: as §1

morningglory = assay: Test B pre/postemergence morningglory; assay type: in vivo, Ipomoea hederacea; details: for Morningglory plant response rating: scale of 0 to 10 where 0 is no effect and 10 is complete control
Outline: as §1

giant foxtail = assay: Test B pre/postemergence giant foxtail; assay type: in vivo, Setaria faberii; details: for Giant foxtail plant response rating: scale of 0 to 10 where 0 is no effect and 10 is complete control
Outline: as §1

rice = assay: Test B flood test rice; assay type: in vivo, Oryza sativa
Outline: (§2)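 Flood test on plants grown to the 2-leaf stage; treated plants kept in greenhouse twelve to sixteen days, then visually rated against controls on a 0 (no effect) to 10 (complete control) scale.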

wheat = assay: Test B pre/postemergence wheat; assay type: in vivo, Triticum aestivum; details: for Wheat plant response rating: scale of 0 to 10 where 0 is no effect and 10 is complete control
Outline: as §1

blackgrass = assay: Test B pre/postemergence blackgrass; assay type: in vivo, Alopecurus myosuroides
Outline: as §1

cocklebur = assay: Test B pre/postemergence cocklebur; assay type: in vivo, Xanthium strumarium; details: for Cocklebur plant response rating: scale of 0 to 10 where 0 is no effect and 10 is complete control
Outline: as §1

sugar beet = assay: Test B pre/postemergence sugar beet; assay type: in vivo, Beta vulgaris; details: for Sugarbeets plant response rating: scale of 0 to 10 where 0 is no effect and 10 is complete control
Outline: as §1

bamyardgrass = assay: Test B flood test barnyardgrass; assay type: in vivo, Echinochloa crus-galli
Outline: as §2

surinam grass = assay: Test B pre/postemergence surinam grass; assay type: in vivo, Brachiaria decumbens
Outline: as §1

wild oat = assay: Test B pre/postemergence wild oat; assay type: in vivo, Avena fatua; details: for Wild oats plant response rating: scale of 0 to 10 where 0 is no effect and 10 is complete control
Outline: as §1

duck salad = assay: Test B flood test duck salad; assay type: in vivo, Heteranthera limosa
Outline: as §2

[1] = Postemergence, Rate 125 g/ha, scale 0 to 10, 0 is no effect, 10 is complete control
[2] = Preemergence, Rate 62 g/ha, scale 0 to 10 (0 no effect, 10 complete control)
[3] = Rate 500 g/ha, Postemergence, scale 0 to 10, 0 no effect, 10 complete control
[4] = Postemergence (flood test), Rate 125 g/ha, scale 0 to 10, 0 is no effect, 10 is complete control
[5] = Rate 62 g/ha, Postemergence (flood test species), scale of 0 to 10 where 0 is no effect and 10 is complete control
[6] = Rate 500 g/ha, listed under Postemergence (flood test species), scale 0 to 10, 0 no effect, 10 complete control
[7] = Preemergence, Rate 250 g/ha, scale of 0 to 10 where 0 is no effect and 10 is complete control
[8] = Preemergence, Rate 500 g/ha, scale of 0 to 10 where 0 is no effect and 10 is complete control
[9] = Rate 62 g/ha, Postemergence, scale of 0 to 10 where 0 is no effect and 10 is complete control
[10] = Rate 250 g/ha, Postemergence, scale of 0 to 10 where 0 is no effect and 10 is complete control

CC(C)N(C(=O)n1oc(=O)n(CC2CCCO2)c1=O)c1ccc(F)cc1 (stereo not shown) [Compound 343]
6: Velvetleaf plant response rating (0 to 10 scale) (velvetleaf; Preemergence, Rate 125 g/ha) | Plant response rating, Crabgrass (crabgrass; [2]) | Plant response rating, Crabgrass (crabgrass; [3]) | Plant response rating, Blackgrass (blackgrass; [3]) | Sugarbeets plant response rating (sugar beet; Preemergence, Rate 500 g/ha) | B. signalgrass plant response rating (surinam grass; [7])
8: Blackgrass plant response rating (0 to 10 scale) (blackgrass; Preemergence, Rate 125 g/ha) | B. signalgrass plant response rating (surinam grass; [8])
3: Plant response rating, Bedstraw (bedstraw; Rate 500 g/ha, scale 0 to 10, 0 no effect, 10 complete control) | Plant response rating, Nutsedge (purple nutsedge; [3]) | Morningglory plant response rating (morningglory; Preemergence, Rate 500 g/ha) | Plant response rating, Blackgrass (blackgrass; [1]) | Blackgrass plant response rating (blackgrass; [9]) | Plant response rating, Sugarbeets (sugar beet; [3]) | Plant response rating, B. signalgrass (surinam grass; [2])
7: Velvetleaf plant response rating (velvetleaf; Preemergence, Rate 250 g/ha) | Velvetleaf plant response rating (velvetleaf; Preemergence, Rate 500 g/ha) | Plant response rating, Giant foxtail (giant foxtail; [1]) | Giant foxtail plant response rating (giant foxtail; Rate 62 g/ha, Postemergence) | Plant response rating, Blackgrass (blackgrass; [2]) | Plant response rating, B. signalgrass (surinam grass; [3])
4: Plant response rating, Wheat (wheat; [1]) | Plant response rating, Cocklebur (cocklebur; [3]) | Plant response rating, B. signalgrass (surinam grass; [1]) | B. signalgrass plant response rating (0 to 10 scale, 0 is no effect, 10 is complete control) (surinam grass; Preemergence, Rate 125 g/ha) | Plant response rating, B. signalgrass (surinam grass; [10]) | Plant response rating, Wild oats (wild oat; [1]) | Wild oats plant response rating (0 to 10 scale) (wild oat; Preemergence, Rate 125 g/ha) | Plant response rating, Wild oats (wild oat; [3])
10: Crabgrass plant response rating (crabgrass; Preemergence, Rate 500 g/ha) | Plant response rating, Redroot pigweed (pigweed; [2]) | Redroot pigweed plant response rating (0 to 10 scale) (pigweed; Preemergence, Rate 125 g/ha) | Redroot pigweed plant response rating (pigweed; Preemergence, Rate 250 g/ha) | Redroot pigweed plant response rating (pigweed; Preemergence, Rate 500 g/ha) | Plant response rating, Giant foxtail (giant foxtail; [2]) | Giant foxtail plant response rating (0 to 10 scale) (giant foxtail; Preemergence, Rate 125 g/ha) | Giant foxtail plant response rating (giant foxtail; Preemergence, Rate 250 g/ha) | Giant foxtail plant response rating (giant foxtail; Preemergence, Rate 500 g/ha) | Blackgrass plant response rating (blackgrass; [8])
0: Plant response rating, Velvetleaf (velvetleaf; [1]) | Velvetleaf plant response rating (velvetleaf; Rate 62 g/ha, Postemergence) | Plant response rating, Bedstraw (bedstraw; Rate 125 g/ha, scale 0 to 10, 0 is no effect, 10 is complete control) | Bedstraw plant response rating (bedstraw; Rate 62 g/ha, scale of 0 to 10 where 0 is no effect and 10 is complete control) | Plant response rating, Bedstraw (bedstraw; Rate 250 g/ha, scale of 0 to 10 where 0 is no effect and 10 is complete control) | Plant response rating, Redroot pigweed (pigweed; [1]) | Redroot pigweed plant response rating (pigweed; Rate 62 g/ha, Postemergence) | Plant response rating, Nutsedge (purple nutsedge; [1]) | Plant response rating, Nutsedge (purple nutsedge; [2]) | Nutsedge plant response rating (0 to 10 scale) (purple nutsedge; Preemergence, Rate 125 g/ha) | Nutsedge plant response rating (purple nutsedge; Preemergence, Rate 250 g/ha) | Nutsedge plant response rating (purple nutsedge; Preemergence, Rate 500 g/ha) | Nutsedge plant response rating (purple nutsedge; Rate 62 g/ha, Postemergence) | Plant response rating, Morningglory (morningglory; [2]) | Plant response rating, Rice (rice; [4]) | Rice plant response rating (rice; [5]) | Plant response rating, Rice (rice; [6]) | Plant response rating, Wheat (wheat; [2]) | Wheat plant response rating (0 to 10 scale) (wheat; Preemergence, Rate 125 g/ha) | Wheat plant response rating (wheat; Preemergence, Rate 250 g/ha) | Plant response rating, Cocklebur (cocklebur; [1]) | Plant response rating, Cocklebur (cocklebur; [2]) | Cocklebur plant response rating (cocklebur; Preemergence, Rate 250 g/ha) | Cocklebur plant response rating (cocklebur; Preemergence, Rate 500 g/ha) | Cocklebur plant response rating (cocklebur; Rate 62 g/ha, Postemergence) | Plant response rating, Sugarbeets (sugar beet; [1]) | Plant response rating, Sugarbeets (sugar beet; [2]) | Sugarbeets plant response rating (0 to 10 scale) (sugar beet; Preemergence, Rate 125 g/ha) | Sugarbeets plant response rating (sugar beet; Rate 62 g/ha, Postemergence) | Plant response rating, Barnyardgrass (bamyardgrass; [4]) | Barnyardgrass plant response rating (bamyardgrass; [5]) | Plant response rating, Barnyardgrass (bamyardgrass; Rate 250 g/ha, Postemergence (flood test species), scale of 0 to 10 where 0 is no effect and 10 is complete control) | Wild oats plant response rating (wild oat; Rate 62 g/ha, Postemergence) | Plant response rating, Ducksalad (duck salad; [4]) | Ducksalad plant response rating (duck salad; [5]) | Plant response rating, Ducksalad (duck salad; [6])
5: Plant response rating, Velvetleaf (velvetleaf; [2]) | Plant response rating, Velvetleaf (velvetleaf; [3]) | Plant response rating, Redroot pigweed (pigweed; [3]) | Wheat plant response rating (wheat; Preemergence, Rate 500 g/ha) | Plant response rating, Wheat (wheat; [3]) | Plant response rating, Blackgrass (blackgrass; [10])
9: Crabgrass plant response rating (0 to 10 scale) (crabgrass; Preemergence, Rate 125 g/ha) | Plant response rating, Morningglory (morningglory; [3]) | Plant response rating, Giant foxtail (giant foxtail; [3]) | Blackgrass plant response rating (blackgrass; [7]) | Wild oats plant response rating (wild oat; Preemergence, Rate 250 g/ha) | Wild oats plant response rating (wild oat; Preemergence, Rate 500 g/ha)
1: Plant response rating, Crabgrass (crabgrass; [1]) | Crabgrass plant response rating (crabgrass; Rate 62 g/ha, Postemergence) | Sugarbeets plant response rating (sugar beet; Preemergence, Rate 250 g/ha)
2: Plant response rating, Morningglory (morningglory; [1]) | Morningglory plant response rating (0 to 10 scale) (morningglory; Preemergence, Rate 125 g/ha) | Morningglory plant response rating (morningglory; Rate 62 g/ha, Postemergence) | Wheat plant response rating (wheat; Rate 62 g/ha, Postemergence) | Plant response rating, Barnyardgrass (bamyardgrass; [6]) | B. signalgrass plant response rating (surinam grass; [9]) | Plant response rating, Wild oats (wild oat; [2])
